Here are results for 24 compounds from US9676732B2, “Ethynyl derivatives” (Hoffmann-La Roche Inc., priority 2013, dated 2017).

One may read the EC50 as the midpoint of the concentration-response curve.

Assay [1] relates to 6-OHDA rodent model of PD. To be noted: cited from earlier work.
In assay [2] the test system is mice treated with 1-Methyl-4-Phenyl-1,2,3,6-Tetrahydropyridine (MPTP). To be noted: cited from earlier work.
In assay [3] the target is human mGlu4 receptor (Homo sapiens (Human), UniProt Q14833). In words: Ca2+ mobilization in vitro assay on recombinant human mGlu4 expressed in HEK293 cells (mGlu4 PAM). To be noted: for EC50: HEK293 cells stably expressing human mGlu4, L-AP4 added at EC20, read-out: EC50 (nM) mGlu4PAM; for Eff. (%): maximal response in % of the maximal stimulatory effect obtained with saturating concentrations of L-AP4. The assay is classed as cell-based. The protocol:
Determination of EC50 Values Using a Ca2+ Mobilization In Vitro Assay on Recombinant Human mGlu4 Expressed in HEK293 Cells:
A monoclonal HEK-293 cell line stably transfected with a cDNA encoding for the human mGlu4 receptor was generated; for the work with mGlu4 Positive Allosteric Modulators (PAMs), a cell line with low receptor expression levels and low constitutive receptor activity was selected to allow the differentiation of agonistic versus PAM activity. Cells were cultured according to standard protocols (Freshney, 2000) in Dulbecco's Modified Eagle Medium with high glucose supplemented with 1 mM glutamine, 10% (vol/vol) heat-inactivated bovine calf serum, Penicillin/Streptomycin, 50 μg/ml hygromycin and 15 μg/ml blasticidin (all cell culture reagents and antibiotics from Invitrogen, Basel, Switzerland).
About 24 hrs before an experiment, 5×10^4 cells/well were seeded in poly-D-lysine coated, black/clear-bottomed 96-well plates. The cells were loaded with 2.5 μM Fluo-4AM in loading buffer (1×HBSS, 20 mM HEPES) for 1 hr at 37° C. and washed five times with loading buffer. The cells were transferred into a Functional Drug Screening System 7000 (Hamamatsu, Paris, France), and 11 half logarithmic serial dilutions of test compound at 37° C. were added and the cells were incubated for 10-30 min. with on-line recording of fluorescence. Following this pre-incubation step, the agonist (2S)-2-amino-4-phosphonobutanoic acid (L-AP4) was added to the cells at a concentration corresponding to EC20 with on-line recording of fluorescence; in order to account for day-to-day variations in the responsiveness of cells, the EC20 of L-AP4 was determined immediately ahead of each experiment by recording of a full dose-response curve of L-AP4.
Responses were measured as peak increase in fluorescence minus basal (i.e. fluorescence without addition of L-AP4), normalized to the maximal stimulatory effect obtained with saturating concentrations of L-AP4. Graphs were plotted with the % maximal stimulatory using XLfit, a curve fitting program that iteratively plots the data using Levenburg Marquardt algorithm. The single site competition analysis equation used was y=A+((B−A)/(1+((x/C)D))), where y is the % maximal stimulatory effect, A is the minimum y, B is the maximum y, C is the EC50, x is the log 10 of the concentration of the competing compound and D is the slope of the curve (the Hill Coefficient). From these curves the EC50 (drug concentration at which 50% of the maximal receptor activation was achieved), the Hill coefficient as well as the maximal response in % of the maximal stimulatory effect obtained with saturating concentrations of L-AP4 were calculated (see FIG. 1).
A depression of the signal observed after addition of the EC20 concentration of L-AP4 was indicative of an inhibitory activity of the test compound. • FIG. 1: Illustration of the experimental outline for mGlu4 PAM Ca2+ mobilization screening assay and the determination of EC50 and % Emax values.
(In general: A change in cytosolic calcium serves as a functional read-out for many receptors and channels.)

The subject of assay [4] is marble burying test in mice. As to conditions: preclinical model of anxiety; cited from earlier work.
The subject of assay [5] is EPM in mice. To be noted: preclinical model of anxiety; cited from earlier work.
The subject of assay [6] is EPM in rats. To be noted: cited from earlier work.

Sequence of human mGlu4 receptor (Q14833 33-912): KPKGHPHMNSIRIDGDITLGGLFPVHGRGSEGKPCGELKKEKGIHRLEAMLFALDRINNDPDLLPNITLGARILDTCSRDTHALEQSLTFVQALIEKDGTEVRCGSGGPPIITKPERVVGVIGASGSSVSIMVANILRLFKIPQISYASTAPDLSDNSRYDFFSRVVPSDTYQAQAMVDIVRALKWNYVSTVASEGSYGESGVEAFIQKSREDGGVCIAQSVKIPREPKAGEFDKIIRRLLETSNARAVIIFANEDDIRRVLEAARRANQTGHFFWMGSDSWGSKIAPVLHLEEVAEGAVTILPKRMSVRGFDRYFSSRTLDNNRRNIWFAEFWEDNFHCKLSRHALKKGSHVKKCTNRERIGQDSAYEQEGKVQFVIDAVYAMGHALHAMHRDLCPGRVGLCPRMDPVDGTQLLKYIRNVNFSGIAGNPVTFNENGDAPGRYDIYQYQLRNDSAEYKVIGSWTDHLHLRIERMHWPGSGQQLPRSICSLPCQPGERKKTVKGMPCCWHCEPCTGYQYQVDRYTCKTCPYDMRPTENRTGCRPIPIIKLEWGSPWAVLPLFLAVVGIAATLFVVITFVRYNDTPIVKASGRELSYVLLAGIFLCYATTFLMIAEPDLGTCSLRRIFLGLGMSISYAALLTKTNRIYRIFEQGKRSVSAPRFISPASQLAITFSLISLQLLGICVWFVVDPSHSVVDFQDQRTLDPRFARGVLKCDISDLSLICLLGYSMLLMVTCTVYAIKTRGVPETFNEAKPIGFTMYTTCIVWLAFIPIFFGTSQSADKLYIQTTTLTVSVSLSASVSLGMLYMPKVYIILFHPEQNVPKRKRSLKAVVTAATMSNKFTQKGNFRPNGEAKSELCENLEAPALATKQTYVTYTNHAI

`N[C@@H](CCP(=O)(O)O)C(=O)O` [L-AP4, (2S)-2-amino-4-phosphonobutanoic acid]: in assay [1], the neuroprotection entry is on record as “neuroprotective effects”.

For `O=C(Nc1ccccc1)C12CC1/C(=N\O)c1ccccc1O2` (single isomer, unassigned; (-)) [(−)-PHCCC], in assay [2], the nigrostriatal degeneration result is “reduced nigrostriatal degeneration”.

`Cc1cccc2c1c(=O)n(-c1ccc(C#Cc3ccccc3)cc1Cl)c(=O)n2C` [Example 41, 3-[2-Chloro-4-(2-phenylethynyl)phenyl]-1,5-dimethyl-quinazoline-2,4-dione]: in assay [3], the EC50 stood at 231 nM and the “Eff. (%)” value was 98%.

For `COc1cccc2c(=O)n(-c3ccc(C#Cc4ccccc4)cc3Cl)c(=O)n(C)c12` [Example 65, 3-[2-Chloro-4-(2-phenylethynyl)phenyl]-8-methoxy-1-methyl-quinazoline-2,4-dione], in assay [3], the EC50 was determined as 32 nM and the “Eff. (%)” value is listed as 97%.

`Cc1csc2c(=O)n(-c3c(F)cc(C#Cc4cccnc4)cc3F)c(=O)n(C)c12` [Example 28, 3-[2,6-Difluoro-4-[2-(3-pyridyl)ethynyl]phenyl]-1,7-dimethyl-thieno[3,2-d]pyrimidine-2,4-dione]: in assay [3], the EC50 was determined as 29 nM and the “Eff. (%)” value stood at 86%.

With `CCn1c(=O)n(-c2ccc(C#Cc3ccccc3)cc2Cl)c(=O)c2ccccc21` [Example 14, 3-[2-Chloro-4-(2-phenylethynyl)phenyl]-1-ethyl-quinazoline-2,4-dione], in assay [3], the EC50 was 172 nM and the “Eff. (%)” value is reported as 97%.

As for `Cn1c(=O)n(-c2ccc(C#Cc3ccccc3)cc2Cl)c(=O)c2cncnc21` [Example 17, 3-[2-Chloro-4-(2-phenylethynyl)phenyl]-1-methyl-pyrimido[4,5-d]pyrimidine-2,4-dione], in assay [3], the EC50 was determined as 143 nM and the “Eff. (%)” value came to 101%.

In the case of `Cn1c(=O)n(-c2ccc(C#Cc3ccccc3)cc2Cl)c(=O)c2cccnc21` [Example 7, 3-[2-Chloro-4-(2-phenylethynyl)phenyl]-1-methyl-pyrido[2,3-d]pyrimidine-2,4-dione], in assay [3], the EC50 worked out at 222 nM and the “Eff. (%)” value is given as 101%.

Consider `COCCn1c(=O)n(-c2ccc(C#Cc3ccccc3)cc2Cl)c(=O)c2ccccc21` [Example 50, 3-[2-Chloro-4-(2-phenylethynyl)phenyl]-1-(2-methoxyethyl)quinazoline-2,4-dione], for which, in assay [3], the EC50 was 499 nM and the “Eff. (%)” value was determined as 110%.

`CC(C)n1c(=O)n(-c2c(F)cc(C#Cc3ccccc3)cc2F)c(=O)c2nccnc21` [Example 68, 3-[2,6-Difluoro-4-(2-phenylethynyl)phenyl]-1-isopropyl-pteridine-2,4-dione]: in assay [3], the EC50 turned out to be 48 nM and the “Eff. (%)” value is 225%.

Regarding `Cn1c(=O)n(-c2c(F)cc(C#Cc3ccccc3)cc2F)c(=O)c2cccnc21` [Example 25, 3-(2,6-Difluoro-4-phenylethynyl-phenyl)-1-methyl-1H-pyrido[2,3-d]pyrimidine-2,4-dione], in assay [3], the EC50 came out at 89 nM and the “Eff. (%)” value was found to be 109%.

Consider `Cc1ccnc(Nc2nc(-c3cn[nH]c3)c(C)s2)n1` [ADX88178], for which the “activity in marble burying test” value in assay [4] was “active”. Further, the “activity in EPM” value is reported as “active” in assay [5] and “active” in assay [6] (rats, preclinical model of anxiety). Also, the “profile in rat EPM test” value in assay [6] (rat, after oral dosing) is reported as “anxiolytic-like profile”.

As to `Cc1cccc2c(=O)n(-c3ccc(C#Cc4ccccc4)cc3Cl)c(=O)n(C)c12` [Example 2, 3-[2-Chloro-4-(2-phenylethynyl)phenyl]-1,8-dimethyl-quinazoline-2,4-dione], in assay [3], the concentration giving a half-maximal response (EC50) came to 94 nM and the “Eff. (%)” value is 99%.

As to `COc1cccc2c(=O)n(-c3c(F)cc(C#Cc4ccccc4)cc3F)c(=O)n(C)c12` [Example 70, 3-[2,6-Difluoro-4-(2-phenylethynyl)phenyl]-8-methoxy-1-methyl-quinazoline-2,4-dione], in assay [3], the EC50 stood at 38 nM and the “Eff. (%)” value worked out at 152%.

On to `Cn1c(=O)n(-c2ncc(C#Cc3ccccc3)cc2C(F)(F)F)c(=O)c2ccccc21` [Example 48, 1-Methyl-3-[5-(2-phenylethynyl)-3-(trifluoromethyl)-2-pyridyl]quinazoline-2,4-dione], for which, in assay [3], the EC50 stood at 175 nM and the “Eff. (%)” value worked out at 95%.

Regarding `Cc1cccc2c(=O)n(-c3c(F)cc(C#Cc4ccccc4)cc3F)c(=O)n(C)c12` [Example 24, 3-[2,6-Difluoro-4-(2-phenylethynyl)phenyl]-1,8-dimethyl-quinazoline-2,4-dione], in assay [3], the EC50 stood at 26 nM and the “Eff. (%)” value is recorded as 101%.

Regarding `Cn1c(=O)n(-c2ccc(C#Cc3ccccc3)cc2Cl)c(=O)c2sc(N3CCOCC3)nc21` [Example 51, 6-[2-Chloro-4-(2-phenylethynyl)phenyl]-4-methyl-2-morpholino-thiazolo[4,5-d]pyrimidine-5,7-dione], in assay [3], the EC50 worked out at 164 nM and the “Eff. (%)” value was 127%.

Turning to `O=c1c2cccc3c2n(c(=O)n1-c1ncc(C#Cc2ccccc2)cc1Cl)CC3` [Example 47, 2-(3-Chloro-5-(phenylethynyl)pyridin-2-yl)-5,6-dihydro-1H-pyrrolo[3,2,1-ij]quinazoline-1,3(2H)-dione], in assay [3], the EC50 turned out to be 187 nM and the “Eff. (%)” value was determined as 110%.

For the compound `Cn1c(=O)n(-c2ncc(C#Cc3ccccc3)cc2Cl)c(=O)c2ccccc21` [Example 44, 3-[3-Chloro-5-(2-phenylethynyl)-2-pyridyl]-1-methyl-quinazoline-2,4-dione], in assay [3], the EC50 is 372 nM and the “Eff. (%)” value is given as 180%.

With `Cn1c(=O)n(-c2ccc(C#Cc3ccccc3)cc2Cl)c(=O)c2ccccc21` [Example 1, 3-[2-Chloro-4-(2-phenylethynyl)phenyl]-1-methyl-quinazoline-2,4-dione], in assay [3], the EC50 turned out to be 150 nM and the “Eff. (%)” value was 102%.

Turning to `Cc1ccnc2c(=O)n(-c3c(F)cc(C#Cc4ccccc4)cc3F)c(=O)n(C)c12` [Example 38, 3-[2,6-Difluoro-4-(2-phenylethynyl)phenyl]-1,8-dimethyl-pyrido[3,2-d]pyrimidine-2,4-dione], in assay [3], the EC50 turned out to be 108 nM and the “Eff. (%)” value is given as 108%.

With `CC(C)n1c(=O)n(-c2c(F)cc(C#Cc3cccnc3)cc2F)c(=O)c2nn(C)cc21` [Example 57, 6-[2,6-Difluoro-4-[2-(3-pyridyl)ethynyl]phenyl]-4-isopropyl-2-methyl-pyrazolo[4,3-d]pyrimidine-5,7-dione], in assay [3], the EC50 is 65 nM and the “Eff. (%)” value came out at 134%.

In the case of `O=c1[nH]c2ncsc2c(=O)n1-c1c(F)cc(C#Cc2ccccc2)cc1F` [Example 31, 6-[2,6-Difluoro-4-(2-phenylethynyl)phenyl]-4H-thiazolo[4,5-d]pyrimidine-5,7-dione], the “Eff. (%)” value in assay [3] is reported as 85%.

With `Cc1cccc2c(=O)n(-c3c(F)cc(C#Cc4cccnc4)cc3Cl)c(=O)n(C)c12` [Example 43, 3-[2-Chloro-6-fluoro-4-[2-(3-pyridyl)ethynyl]phenyl]-1,8-dimethyl-quinazoline-2,4-dione], in assay [3], the EC50 turned out to be 74 nM and the “Eff. (%)” value was 107%.
